The record followed here is ChEMBL document CHEMBL1201862, “PubChem BioAssay data set” (2004).

Each structure is given as a SMILES string.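 Protocol summary: plate cells (96-well), add compound at 5 concentrations, incubate 48 h, interpolate endpoints linearly. GI50 is the concentration that inhibits growth by half.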 The source made the active and inactive calls. Cut-off read from the data, not from the text of the source: active = GI50 up to about 1.1 µM and inactive = higher.

Some test systems named below: A498; CCRF-CEM; HOP-62; KM12; MCF7; MOLT-4; Malme-3M; NCI-H226; NCI-H522; OVCAR-3; OVCAR-5; RPMI-8226; SK-MEL-28; SK-OV-3; SNB-19; SR; TK-10; U-251; UACC-62.
Common to all, as to test: NCI tumour cell line growth inhibition, 48 h

Regarding `COc1cc(N/N=C/C#N)cc(OC)c1OC`, the GI50 is > 10 µM (inactive) with A498; 3.28 µM (inactive) with CCRF-CEM; > 10 µM (inactive) in the assay on HOP-62; > 10 µM (inactive) with KM12; 5.87 µM (inactive) with MCF7; 2.92 µM (inactive) in the assay on MOLT-4. Further, the GI50 in the assay with Malme-3M was 7.55 µM (inactive); in the assay with NCI-H226, > 10 µM (inactive); with NCI-H522, 1.01 µM (active); in the assay with OVCAR-3 it was > 10 µM (inactive); with OVCAR-5 it was > 10 µM (inactive); in the assay with RPMI-8226 it was 2.16 µM (inactive). Further, the GI50 in the assay on SK-MEL-28 is > 10 µM (inactive); in the assay on SK-OV-3, > 10 µM (inactive); in the assay on SNB-19, > 10 µM (inactive); with SR, 2.96 µM (inactive); in the assay on TK-10 it was > 10 µM (inactive); in the assay with U-251, > 10 µM (inactive). Also, in the assay on UACC-62, the GI50 was > 10 µM (inactive).

As to `COC(=O)c1ccc2c(c1)CCN2C(=O)c1cc2c(cc1Br)OCO2`, the GI50 in the assay on A498 is 1.05 µM (active); in the assay with CCRF-CEM, 0.404 µM (active); with HOP-62 it was 3.87 µM (inactive); with KM12, 0.424 µM (active); with MCF7 it was 0.251 µM (active); in the assay on MOLT-4 it was 0.504 µM (active). Moreover, the GI50 in the assay on Malme-3M is 0.231 µM (active); with NCI-H226 it was 0.277 µM (active); in the assay on NCI-H522, 0.119 µM (active); in the assay on OVCAR-3, 0.313 µM (active); in the assay with OVCAR-5, > 50 µM (inactive); in the assay with RPMI-8226, 0.668 µM (active). Further, the GI50 in the assay on SK-MEL-28 is 11 µM (inactive); in the assay on SK-OV-3, 3.05 µM (inactive); in the assay with SNB-19, 0.439 µM (active); in the assay on SR it was 0.0817 µM (active); with TK-10 it was 2 µM (inactive); in the assay with U-251 it was 0.822 µM (active). Also, the GI50 in the assay with UACC-62 was 0.439 µM (active).

In the case of `N#Cc1cc2c(cc1C#N)/C(=N\c1cccc(N)n1)N/C2=N\c1cccc(N)n1`, the GI50 in the assay on A498 was > 10 µM (inactive); in the assay on CCRF-CEM, 4.74 µM (inactive); in the assay with HOP-62, 24.3 µM (inactive); in the assay with KM12, 36.8 µM (inactive); in the assay on MCF7, 18.6 µM (inactive); with MOLT-4, 3.78 µM (inactive). Moreover, the GI50 is 14.3 µM (inactive) in the assay on Malme-3M; > 100 µM (inactive) in the assay on NCI-H226; 9.38 µM (inactive) in the assay on NCI-H522; 29.5 µM (inactive) in the assay on OVCAR-3; > 100 µM (inactive) in the assay on OVCAR-5; 32.7 µM (inactive) in the assay on RPMI-8226. Further, the GI50 in the assay on SK-MEL-28 is 18.8 µM (inactive); with SK-OV-3 it was 13.7 µM (inactive); in the assay with SNB-19, 70 µM (inactive); in the assay with SR it was 4.85 µM (inactive); in the assay with TK-10 it was 19.3 µM (inactive); with U-251, 32.5 µM (inactive). Further, in the assay with UACC-62, the GI50 was 15.2 µM (inactive).

Regarding `C/C(=N\NC(=S)N1CCN(c2ccccn2)CC1)c1cccc(C)n1`, the GI50 in the assay with A498 was 2.75 µM (inactive); in the assay with CCRF-CEM, < 0.01 µM (active); with HOP-62, 6.31 µM (inactive); in the assay on KM12 it was 3.1 µM (inactive); in the assay with MCF7, < 0.01 µM (active); with MOLT-4 it was < 0.01 µM (active). In addition, the GI50 was 2.59 µM (inactive) in the assay on Malme-3M; 2.06 µM (inactive) in the assay with NCI-H226; 0.0421 µM (active) in the assay with NCI-H522; < 0.01 µM (active) in the assay with OVCAR-3; 4.03 µM (inactive) in the assay on OVCAR-5; < 0.01 µM (active) with RPMI-8226. Further, the GI50 is 7.1 µM (inactive) in the assay with SK-MEL-28; 8.65 µM (inactive) with SK-OV-3; 7.26 µM (inactive) in the assay on SNB-19; 1.44 µM (inactive) in the assay on SR; 7.78 µM (inactive) in the assay on TK-10; < 0.01 µM (active) in the assay on U-251. For the same compound, the GI50 in the assay on UACC-62 is 2.23 µM (inactive).

Regarding `O=C(O)c1nc2ccc(C(F)(F)F)cc2[nH]c1=O`, the GI50 in the assay on A498, in the assay with CCRF-CEM, in the assay with HOP-62, in the assay on KM12, in the assay on MCF7 and with MOLT-4 was > 100 µM (inactive) in each case. Further, the GI50 with Malme-3M, with NCI-H226, with NCI-H522, in the assay on OVCAR-3, in the assay with OVCAR-5 and with RPMI-8226 was > 100 µM (inactive) in each case. In addition, the GI50 in the assay with SK-MEL-28, with SK-OV-3, with SNB-19, in the assay on SR, with TK-10 and in the assay with U-251 was > 100 µM (inactive) throughout. The GI50 with UACC-62 was > 100 µM (inactive).

As to `CCN(CC)c1ccc2c(c1)Oc1ccc(N(C(C)=O)c3ccccc3)cc1C21OC(=O)c2ccccc21` (configuration not stated), the GI50 in the assay on A498 is > 100 µM (inactive); with CCRF-CEM, 21.1 µM (inactive); in the assay with HOP-62 it was > 100 µM (inactive); with KM12, 23 µM (inactive); with MCF7, 40.3 µM (inactive); with MOLT-4, 16.7 µM (inactive). For the same compound, the GI50 with Malme-3M was 53.3 µM (inactive); with NCI-H226 it was > 100 µM (inactive); in the assay with NCI-H522 it was 62.7 µM (inactive); with OVCAR-3 it was > 100 µM (inactive); in the assay on OVCAR-5, > 100 µM (inactive); with RPMI-8226 it was 6.76 µM (inactive). The GI50 in the assay on SK-MEL-28 is > 100 µM (inactive); in the assay on SK-OV-3, > 100 µM (inactive); in the assay with SNB-19, > 100 µM (inactive); in the assay on SR, 23.3 µM (inactive); in the assay on TK-10 it was > 100 µM (inactive); with U-251, > 77.3 µM (inactive). Moreover, the GI50 in the assay with UACC-62 is > 91.8 µM (inactive).

Consider `CCCC(=O)Nc1cc(/C=C/C(=O)N2CC(CCl)c3c2cc(OCc2ccccc2)c2[nH]cc(C)c32)n(C)c1` (configuration not stated), for which the GI50 with A498 was 0.0953 µM (active); in the assay with CCRF-CEM, 0.0101 µM (active); with HOP-62, 0.0491 µM (active); with KM12, 0.102 µM (active); in the assay on MCF7, 0.0025 µM (active); in the assay on MOLT-4, 0.00855 µM (active). Besides, the GI50 in the assay on Malme-3M was 0.0916 µM (active); in the assay on NCI-H226, 0.107 µM (active); in the assay on NCI-H522, 0.00849 µM (active); with OVCAR-3, 0.127 µM (active); in the assay on OVCAR-5 it was 0.151 µM (active); in the assay with RPMI-8226 it was 0.0745 µM (active). The GI50 is 0.215 µM (active) with SK-MEL-28; 0.199 µM (active) in the assay with SK-OV-3; 0.337 µM (active) in the assay on SNB-19; 0.00444 µM (active) in the assay on SR; 0.533 µM (active) in the assay on TK-10; 0.0513 µM (active) in the assay with U-251. Besides, the GI50 in the assay with UACC-62 is 0.027 µM (active).

Take `CC1CNC(NS(=O)(=O)c2cc(C(=O)Nc3ccc(F)cc3)c(Cl)cc2S)=NN1` (configuration not stated): the GI50 was 17.2 µM (inactive) in the assay on A498; 42.5 µM (inactive) in the assay with CCRF-CEM; 75.7 µM (inactive) in the assay with HOP-62; 49.3 µM (inactive) in the assay on KM12; 41 µM (inactive) in the assay on MCF7; 59.3 µM (inactive) in the assay on MOLT-4. The GI50 in the assay on Malme-3M was 29.1 µM (inactive); in the assay with NCI-H226, 36.4 µM (inactive); with NCI-H522, 33.3 µM (inactive); with OVCAR-3, 92.9 µM (inactive); in the assay with OVCAR-5 it was 59.7 µM (inactive); in the assay on RPMI-8226, 34.9 µM (inactive). The GI50 in the assay on SK-MEL-28 is 56.2 µM (inactive); with SK-OV-3 it was > 100 µM (inactive); in the assay with SNB-19, 87.1 µM (inactive); with SR it was 43.5 µM (inactive); in the assay with TK-10 it was > 100 µM (inactive); in the assay on U-251 it was 48.4 µM (inactive). Moreover, the GI50 in the assay on UACC-62 is 57.3 µM (inactive).
